| Compound | melting point [°C] |
| --- | --- |
| c1cc(-c2ccc(-c3cn([C@H]4CN5CCC4CC5)nn3)s2)ccc1CN1CCCCC1 | 230 |
| COc1ccc(Cl)cc1C(=O)NCCc1ccc(CCC(=O)O)cc1 | 118 to 120 |
| CCCNC(=O)CCn1ccc(=O)c(O)c1 | 113 to 114 |
| CCC(=O)NC1=NN(c2ccccc2)C(c2ccccc2)C1 (stereo not given) | 148 |
| CN1CCC(c2c[nH]c3ccc(NC(=O)c4ccccn4)nc23)CC1 | 221 to 223 |
| COCCc1ccc(OCC(O)CNCCNC(=O)C2CCCOC2)cc1 (stereo not given) | 107 to 108 |
| Cc1oc(-c2ccccc2)nc1C(=O)c1cc2cc(Br)ccc2o1 | 212 to 213 |
| CC(=O)OC1CC2=CCC3C4CCC(C(C)CBr)C4(C)CCC3C2(C)C(OC(C)=O)C1 (stereo not given) | 75 to 76 |
| COc1cccc(OC)c1C(=O)Nc1nnc(-c2ccc(O)cc2)s1 | > 260 |
| c1cncc(CSc2nnc(-c3ccc4c(c3)CCO4)o2)c1 | 118 to 122 |
| CCc1nc2c(N)nc3ccccc3c2n1CCCCNC(=O)C1CCCC1 | 179 to 180 |
| CC(Nc1c(Nc2ccc(S(N)(=O)=O)cc2)c(=O)c1=O)C(C)(C)C (stereo not given) | 233 to 235 |
| COC(=O)C1=C(C)OC(C)=C(C(=O)OC)C1c1ccccc1 | 62.5 |
| O=C(CC(NC(=O)COc1ccccc1)c1ccccc1)Nc1n[nH]c(=S)s1 (stereo not given) | 225 to 226 |
| N#Cc1cnc2cc(-c3cncc(CN4CCOCC4)c3)ccc2c1Nc1ccc(Oc2ccccc2)cc1 | 185 to 187 |
| N#CC1=C(C2CCN(C(=N)N)CC2)Nc2n[nH]cc2C1c1cccc2nonc12 (stereo not given) | > 270 |
| CCCCc1nc(Sc2ccccc2)c(C(=O)OCC)[nH]1 | 74 |
| Cc1oc(-c2ccccc2)nc1/C=C/c1ccc(C=O)cc1 | 158 to 159 |
| CN1CCC(C(=O)Nc2ccc(CN(C)C3CCOCC3)cc2)=Cc2cc(-c3ccc(N4CCCCC4)cc3)ccc21 | 202 to 204 |
| Cc1ncc([N+](=O)[O-])n1CCOS(C)(=O)=O | 152 to 153 |
| Cc1cc(SCc2cccc(C(F)(F)F)c2)c(C)cc1N | 58 to 60 |
| OC(Cn1cncn1)(c1ccc(F)cc1F)C(F)(F)F (stereo not given) | 110 to 111 |
| OCc1cccc(-n2cccc2)c1 | 64 to 67 |
| Clc1ccc(C(c2ccccc2)N2CCN(CCCn3cnc4ccccc43)CC2)cc1 (stereo not given) | 106 |

| Compound | melting point [°C] |
| --- | --- |
| Oc1ccc(-c2c3ccccc3c(C(F)(F)F)c3sc4ccccc4c23)cc1 | 210 to 211 |
| O=C(O)c1cccc(-c2ccc3c(c2)N(c2cc(Cl)cc(Cl)c2)CC3)c1 | 210 to 211 |
| OC1CCc2cc(F)cc(F)c21 (stereo not given) | 102 to 103 |
| O=C(O)CCC(O)c1ccc(CCNS(=O)(=O)c2ccc(Cl)cc2)cc1 (stereo not given) | 191 |
| CCOC(=O)/C=C/C=C/c1ccc(OCc2nc(-c3ccccc3)oc2C)cc1 | 137 to 138 |
| CC(=O)c1cn(-c2c(Cl)cc(OC(F)(F)F)cc2Cl)nc1C#N | 106 to 107 |
| C=CC(=O)NC1=CC(O)(C(C)=O)C(C(=O)O)C=C1 (stereo not given) | 171 |
| Cn1c(=O)c2c(N)ncnc2n(C)c1=O | > 300 |
| CCOC(=NC(=O)c1ccncc1)N1Cc2ccccc2-c2ccccc2C1 | 120 to 122 |
| CN(C)CC(Cc1ccccc1)NC(=O)c1ccccc1 (stereo not given) | 110 |
| c1ccc2c(c1)C[C@@H]1c3ccccc3N[C@H]21 (relative stereo) | 107 |
| O=S(CCCCCOc1ccc(C2=C(c3ccccc3)CCCc3cc(O)ccc32)cc1)Cc1cccs1 (stereo not given) | 174 to 177 |
| Cc1csc(C2=C(c3ccc(S(C)(=O)=O)cc3)CCC2)c1 | 138 to 139 |
| COc1ccc(C(=O)CCCCCN2CCC(CNC(=O)c3cc(Cl)c(N)cc3OC)CC2)cc1F | 112 to 113 |
| Cc1ccc(OCCC(CCl)NC(=O)c2c(F)cccc2F)cc1 (stereo not given) | 97 to 99 |
| CCCCNS(=O)(=O)CC(O)C(O)C(CC1CCCCC1)NC(=O)CC(CC)c1c[nH]cn1 (stereo not given) | 60 to 90 |
| CCOC(=O)c1nnc2ccc(NS(C)(=O)=O)cc2c1O | 274 to 275 |
| Cc1cc(-c2cnn3c(C(F)(F)F)cc(-c4ccc(OCC(F)(F)F)c(C(F)(F)F)c4)nc23)ccn1 | 210 |
| c1ccc2sc(C3CCNCC3)cc2c1 | 82 to 84 |
| CC(=O)NCCC1CCc2ccc3c(c21)CCO3 (stereo not given) | 78 to 79 |
| Cc1c(C)n(Cc2ccccc2)c2ncnc(Cl)c12 | 115 to 116 |
| Nc1nc(Oc2ccccc2)c2nc[nH]c2n1 | 228 |
| c1csc(-c2ccc(C34CCN(CC3)C4)cn2)n1 | 127 to 129 |

More lines, now with the values ahead:

| melting point [°C] | Compound |
| --- | --- |
| 113 to 114 | CCCCC(=O)Nc1c(OC)cccc1[N+](=O)[O-] |
| 167 to 170 | CN(C)c1ccccc1CSc1nc2ccccc2[nH]1 |
| 215 to 216 | O=c1c2cc(F)c(Cl)nc2n(-c2ccc(F)cc2F)c(=O)n1OCc1ccccc1 |
| 77 to 79 | O[C@@H](COc1cccc(-c2noc3ccsc23)c1)CN1CCN(c2ccccc2C(F)(F)F)CC1 |
| > 250 | CNC(=O)c1cnn(C)c1C(=O)Nc1ccn2nc(-c3ccccc3)nc2c1 |
| 133 to 135 | O=C1CCc2c(Cl)sc(-c3ccccc3F)c21 |
| 201 to 203 | Nc1nc(Cl)cc(NC(CO)C2C=CCC2)n1 (stereo not given) |
| 276 to 279 | Cc1cc(Br)cnc1CCCCc1cc(N)cc2c1C(N)=NS2(=O)=O |
| 165 to 167 | CC1(N)CN(C(=O)Nc2ccc(C(F)(F)F)cc2)N=C1c1ccc(Cl)cc1 (stereo not given) |
| 218 to 220 | COc1ccc(-c2c(Cl)c(CN3C(=O)CCC3=O)nc3sc4c(c23)CCC(O)C4)cc1 (stereo not given) |
| 118 to 119 | CCOC(=O)C1=C(C)NC(C)=C(C(=O)OCC)C1c1ccc(F)c(Br)c1 |
| 75 to 76 | Cc1cc2cc(Cl)ccc2n1Cc1ccccc1 |
| 72 | COc1ccc(-c2cc(F)cc3c2NC(CN)CO3)cc1 (stereo not given) |
| 50 | C=C(CC(N)C(=O)OCC)CC(NC=O)(C(=O)OCC)C(=O)OCC (stereo not given) |
| 145 to 146 | CC(=O)Nc1nc(CO)c(Cl)s1 |
| 132 | Cc1cccc(-n2cc(-c3ccc4c(c3)N(C(=O)CN3CCN(C)CC3)CCO4)nn2)n1 |
| 82 | COc1ccc2oc(Cc3cccc(Cl)c3)c(CC#N)c2c1 |
| 89 to 91 | CCOCCS(=O)(=O)C(F)(F)C(O)(Cn1cncn1)c1ccc(F)cc1F (stereo not given) |
| 185 to 189 | Cc1ncc(CS)c(COC(=O)c2ccccc2)c1OC(=O)c1ccccc1 |
| 137 | CCCc1nc2ccnn2c(Cl)c1Cc1ccc(-c2ccccc2C#N)cc1 |

| melting point [°C] | Compound |
| --- | --- |
| 244 to 247 | NC(=O)c1sc2nccc(NC3CCCCC3)c2c1N |
| 136 to 139 | O=C1COc2ccc3c(c2N1)C(=O)CC3 |
| 98 to 100 | CNc1nc(SC)ncc1C=O |
| 225 to 227 | Cc1cc(Nc2ccc(Cl)cc2)nc(-n2cc3ccccc3n2)n1 |
| 128 to 129 | CC(=O)OCc1nc2ccc(Oc3cc(C)c(OC(C)=O)c(C)c3C)nc2n1C |
| 256 to 257 | CN1CCC(Oc2[nH]nc(-c3ccc(Cl)cc3)c2-c2ccncc2)CC1 |
| 242 | C#CCOc1cc(O)ccc1-c1nc2cnccc2[nH]1 |
| 95 to 96 | Cc1ccc(S(=O)(=O)NCCCCSc2ccc(NS(C)(=O)=O)cc2)cc1 |
| 55 to 57 | Cc1ccccc1N1CCN(CCC2CN(C)C(=O)O2)CC1 (stereo not given) |
| 193 | O=C(O)c1cnc(CO)s1 |
| 154 to 156 | CC(C)C(=O)N[C@@H](CSC(=O)c1ccccc1)C(=O)NCCSC(=O)c1ccccc1 |
| 155 | CC(=O)OC1CSC(Oc2ccc(-c3cccnc3)nc2Cl)C(OC(C)=O)C1OC(C)=O (stereo not given) |
| 201 to 202 | CC(=O)N1CCC2(CC1)CC(=O)c1c(ccc([N+](=O)[O-])c1O)O2 |
| 163 to 164 | CC(C)Nc1cccnc1N1CCN(C(=O)c2ccc(C(=O)N3CCSCC3)cc2)CC1 |
| 88 to 91 | O=C(Cn1c(-c2cccnc2)ncc(NC(=O)OCc2ccccc2)c1=O)NC(Cc1ccccc1)C(=O)C(F)(F)F (stereo not given) |
| 145 to 150 | O=C(CN1CCN(C(CO)C(=O)O)CCN(C(CO)C(=O)O)CCN(C(CO)C(=O)O)CC1)NCCOCCO (stereo not given) |
| 200 to 201 | COCc1ccc(-c2ccc3nnn(Cc4ccc5ncccc5c4)c3n2)cc1F |
| 132 to 134 | CC1=C(c2cccc(C(F)(F)F)c2)n2ncc(C#N)c2N(C(=O)CN2CCN(c3ccccn3)CC2)C1 |
| 256 to 257 | Cc1nnc(-c2cc(NCc3c(C)cccc3C)c3nc(C)n(C)c3c2)o1 |
| 223 to 225 | Oc1ccc(Nc2nccc(-c3cccnc3)n2)cc1 |

| melting point [°C] | Compound |
| --- | --- |
| 89 to 93 | COc1cccc(C23CCCC=C2C(=O)N(CC2CCC2)C(=O)C3)c1 (stereo not given) |
| 194 to 196 | OCCCN1Cc2cccc3c2N(CC3)c2ccccc21 |
| 249 to 251 | COC(=O)C1=C(C)NC(C)=C(P2(=O)OCCCO2)C1c1ccccc1[N+](=O)[O-] (stereo not given) |
| 154 to 155 | CC(C)(CNc1ccnc2cc(Cl)ccc12)NCc1c(Cl)cccc1Cl |
| 123 | CC(C)Oc1ccc(O)cc1OCCN1C(=O)c2ccccc2C1=O |
| 92 | CCCCNC(=O)N(c1ccccc1)c1ccccc1 |
| 127 to 128 | CC(C)OC(=O)CS(=O)(=O)C=C1SC=CS1 |
| 211 | N#Cc1c(N2CCNCC2)c2cccnc2n(Cc2ccccc2)c1=O |
| 129 | Nc1cccc(NCCO)c1[N+](=O)[O-] |
| 258 | CC(=O)c1c(C)[nH]c(-c2ccccc2C)c1N |
| 132 | O=[N+]([O-])c1ccc(O)c(COCCO)c1 |
| 52.5 to 55.5 | O=[N+]([O-])c1cccc(OCCn2ccnc2)c1 |
| 167 | N=C(N)Nc1nc2ccccc2n1Cc1ccccc1 |
| 57 to 60 | NCCNC(=O)c1ccc(F)cc1 |
| 118 to 120 | Cc1cc(C(=S)CBr)ccc1O |
| > 300 | O=c1c2ccc(Cl)cc2[nH]n2cccc12 |
| 215 to 220 | COc1cc(OC)n2nc(N)nc2n1 |
| 102 to 104 | CCOC(=O)c1cnn(-c2cccc(S(=O)(=O)N(C)C)n2)c1S(N)(=O)=O |
